Read-outs that look alike come from different tables or passages of the source.
Tested on: acyl-coenzyme A: cholesterol acyltransferase
Assay: Inhibition of ACAT / intracellular cholesterol esterification in vitro (procedure of Ross et al.)
Format: cell-based

CCCCCCN(CCCCCC)C(Nc1ccc(OC)cc1OC)=C1C(=O)OC(C)(C)OC1=O [Compound 1, 5-[(Dihexylamino)[(2,4-dimethoxyphenyl)amino]methylene]-2,2-dimethyl-1,3-dioxane-4,6-dione]
% Inhibition (50 μM): 65%

CCCCCCN(CCCCCC)C(Nc1ccc(F)cc1)=C1C(=O)OC(C)(C)OC1=O [Compound 3, 5-[(Dihexylamino)[(4-fluorophenyl)amino]methylene]-2,2-dimethyl-1,3-dioxane-4,6-dione]
% Inhibition (50 μM): 77% | IC50 (read-out: IC50): 9 µM

COc1ccc(NC(NCC2(c3ccccc3)CCCC2)=C2C(=O)OC(C)(C)OC2=O)c(OC)c1 [Compound 9, 5-[[(2,4-Dimethoxyphenyl)amino][[(1-phenylcyclopentyl)methyl]amino]methylene]-2,2-dimethyl-1,3-dioxane-4,6-dione]
% Inhibition (25 μM): 98% | IC50 (read-out: IC50): 5.6 µM

COc1ccc(NC(=C2C(=O)OC(C)(C)OC2=O)N(Cc2ccc(CC(C)(C)C)cc2)CC2(c3ccccc3)CCCC2)c(OC)c1 [Compound 10, 5-[[(2,4-Dimethoxyphenyl)amino][[[4-(2,2-dimethylpropyl)phenyl]methyl)][(1-penylcyclo-pentylmethyl]amino]methylene]-2,2-dimethyl-3-dioxane-4,6-dione]
% Inhibition (25 μM): 97% | IC50 (read-out: IC50): 0.29 µM

COc1ccc(NC(=C2C(=O)OC(C)(C)OC2=O)N(Cc2ccc(CC(C)C)cc2)[C@@H](CO[Si](C)(C)C(C)(C)C)Cc2ccccc2)c(OC)c1 [Compound 11]
IC50: 2.8 µM | % Inhibition (25 μM): 98%

COc1ccc(NC(=C2C(=O)OC(C)(C)OC2=O)N(Cc2ccc(CC(C)C)cc2)[C@@H](CO)Cc2ccccc2)c(OC)c1 [Compound 12, (R)-5-[[(2,4-Dimethoxyphenyl)amino][[(1R)1-(hydroxymethyl)-2-phenylethyl][[4-(2-methyl-propyl)phenyl]methyl]amino]methylene]-2,2-dimethyl-1,3-dioxane-4.6-dione]
% Inhibition (25 μM): 96%

CCCCCC(C)N(Cc1ccc(CC(C)C)cc1)C(Nc1cc(C(C)(C)C)c(O)c(C(C)(C)C)c1)=C1C(=O)OC(C)(C)OC1=O (stereo not shown) [Compound 13]
% Inhibition (25 μM): 99% | IC50 (read-out: IC50): 0.19 µM

CCCCCCCN(Cc1ccc(C(C)(C)C)cc1)C(Nc1ccc(F)cc1F)=C1C(=O)OC(C)(C)OC1=O [Compound 15]
% Inhibition (50 μM): 63%

CCCCCCCN(Cc1ccc(C(C)(C)C)cc1)C(Nc1c(C)cc(N(C)C)cc1C)=C1C(=O)OC(C)(C)OC1=O [Compound 16, 5-[[[4-(Dimethylamino)-2,6-dimethylphenyl]amino][[[4-(1,1-dimethylethyl)phenyl]methyl]heptylamino]methylene]-2,2-dimethyl-1,3-dioxane-4,6-dione]
% Inhibition (25 μM): 84% | IC50 (read-out: IC50): 0.98 µM

CCCCCCCN(Cc1ccc(CCCCC)cc1)C(Nc1ccc(C(F)(F)F)cc1)=C1C(=O)OC(C)(C)OC1=O [Compound 17, 5-[[[4-(Trifluoromethyl)phenyl]amino][heptyl[(4-pentylphenyl)methyl]amino]methylene]-2,2-dimethyl-1,3-dioxane-4,6-dione]
% Inhibition (25 μM): 72%

CCCCCCCN(Cc1ccc(CCCCCC)cc1)C(Nc1ccc(F)cc1F)=C1C(=O)OC(C)(C)OC1=O [Compound 18, 5-[[(2,4-Difluorophenyl)amino][[(4-hexylphenyl)methyl]heptylamino]methylene]-2,2-dimethyl-1,3-dioxane-4,6-dione]
% Inhibition (50 μM): 60%

CCCCCCCN(Cc1ccc(C(C)(C)C)cc1)C(Nc1ccc(OCCCC)cc1)=C1C(=O)OC(C)(C)OC1=O [Compound 19]
% Inhibition (25 μM): 98% | IC50 (read-out: IC50): 2.4 µM

CCCCCC(C)N(Cc1ccc(C(C)(C)C)cc1)C(Nc1cc(OC)c(OC)c(OC)c1)=C1C(=O)OC(C)(C)OC1=O (stereo not shown) [Compound 20]
% Inhibition (25 μM): 96% | IC50 (read-out: IC50): 0.77 µM

CCCCCCCN(Cc1ccc(OCCC(C)C)cc1)C(Nc1cc(OC)c(OC)c(OC)c1)=C1C(=O)OC(C)(C)OC1=O [Compound 23]
% Inhibition (25 μM): 85% | IC50 (read-out: IC50): 3.5 µM

CCCCCCCN(Cc1ccc(C(C)(C)C)cc1)C(Nc1ccc(OCCCCC)cc1)=C1C(=O)OC(C)(C)OC1=O [Compound 24]
% Inhibition (25 μM): 96% | IC50 (read-out: IC50): 2.3 µM

— US5399697A, “N,N',N'-trisubstituted-5-bisaminomethylene-1,3-dioxane-4,6-dione inhibitors of acyl-CoA:cholesterol-acyl transferase” (American Home Products Corporation, priority 1993, dated 1995)
